Experimental data: US7855228B2, “Antibiotics targeting MreB” (The Board of Trustees of the Leland Stamford Junior …, priority 2005, dated 2010)
≈ marks a conversion by molar mass, not a printed value.

Assays:
E. coli MG1655 [1] = assay: Determination of minimum inhibitory concentration (MIC); type: cell-based; details: Escherichia coli, MG1655, Example 2; methods as in Example 1; read-out: MIC E. coli
Procedure: (§1) Determination of minimum inhibitory concentration (MIC). MICs were also determined on Mueller Hinton agar plates (0.2% beef extract, 1.75% acid digest of casein, 0.15% soluble starch, 1.5% agar, pH 7.3).
(§2) Determination of MIC Minimal inhibitory concentrations (MICs) were determined using a standard 2-fold serial dilution format on L agar plates. Ten microliters of stationary culture diluted in 0.85% NaCl to 10^6 cells/ml were spotted on per plate. […] MICs were also determined on Mueller Hinton agar plates (0.2% beef extract, 1.75% acid digest of casein, 0.15% soluble starch, 1.5% agar, pH 7.3).

P. putida NBRC14164 = assay: as above; type: cell-based, Pseudomonas putida; details: Pseudomonas putida, NBRC14164, Example 2; methods as in Example 1; read-out: MIC P. putida
Procedure: as §1, §2

S. typhimurium NBRC13245 = assay: as above; type: cell-based, Salmonella typhimurium; details: Salmonella enterica, Example 2; methods as in Example 1; read-out: MIC S. typhimurium
Procedure: as §1, §2

B. subtilis 168 = assay: as above; type: cell-based, Bacillus subtilis; details: Bacillus subtilis, 168, Example 2; methods as in Example 1; read-out: MIC B. subtilis
Procedure: as §1, §2

[2] = tested on: S. aureus subsp. aureus NBRC15035; assay: as above; type: cell-based, Staphylococcus aureus; details: Staphylococcus aureus, NBRC15035, Example 2; methods as in Example 1; read-out: MIC S. aureus
Procedure: as §1, §2

E. coli MG1655 [3] = assay: Microscopic observation of cell shape; type: cell-based; details: Example 2; methods as in Example 1
Procedure: Microscopic observation. E. coli K-12 strain MG1655 (F^− λ^−) was grown in Lennox broth containing 1% Polypepton, 0.5% yeast extract, 0.5% NaCl, and 0.1% glucose (pH 7.2). Cells spread on a slide glass were treated with methanol for 5 min and covered with poly-L-lysine. The fixed cells were observed by the differential interference contrast system through an Axioskop 2 microscope (Carl Zeiss Co., Ltd., Oberkochen, Germany). To observe the anucleate cells, cells were stained with a 4′,6-diamidino-2-phenylindole (DAPI) solution (5 μg/ml in saline) and then observed by the fluorescence phase-contrast combined method.
The effect of each compound on E. coli cell morphology was next examined.

SMILES | MIC (E. coli MG1655 [1]) [µg/mL] | MIC (P. putida NBRC14164) [µg/mL] | MIC (S. typhimurium NBRC13245) [µg/mL] | MIC (B. subtilis 168) [µg/mL] | MIC [2] [µg/mL] | Shape (E. coli MG1655 [3])
N=C(N)SCc1ccc(Br)cc1 [Compound 4-Br, S-(4-Bromo-benzyl)-isothiourea] | 3.13 (≈ 12.8 µM) | > 100 | 6.25 (≈ 25.5 µM) | > 100 | > 100 | Sphere
N=C(N)SCc1ccc([N+](=O)[O-])cc1 [Compound 4-NO2, S-(4-Nitro-benzyl)-isothiourea] | 25 (≈ 118 µM) | > 100 | 50 (≈ 237 µM) | 25 (≈ 118 µM) | > 100 | Sphere
CN(C)[C@@H]1C(O)=C(C(N)=O)C(=O)[C@@]2(O)C(O)=C3C(=O)c4c(O)cccc4[C@@](C)(O)C3CC12 (stereo partly shown) [TC, reference compound] | – | – | – | – | – | Rod
CC1(C)S[C@@H]2[C@H](NC(=O)c3ccccc3)C(=O)N2[C@H]1C(=O)O [PCG, reference compound] | 50 (≈ 156 µM) | > 100 | 12.5 (≈ 39 µM) | 0.0122 (≈ 0.0381 µM) | 0.0977 (≈ 0.305 µM) | Fil
N=C(N)SCc1c(F)cccc1F [2,6-F] | 50 (≈ 247 µM) | > 100 | 50 (≈ 247 µM) | > 100 | > 100 | Sphere
N=C(N)SCc1cc(Cl)cc(Cl)c1 [3,5-Cl] | > 100 | > 100 | > 100 | > 100 | > 100 | Sphere
N=C(N)SCc1cccc(Cl)c1 [Compound 3-Cl] | 50 (≈ 249 µM) | > 100 | > 100 | 50 (≈ 249 µM) | > 100 | Sphere
O=C(N[C@H](CO)[C@H](O)c1ccc([N+](=O)[O-])cc1)C(Cl)Cl [CP, reference compound] | 6.25 (≈ 19.3 µM) | 50 (≈ 155 µM) | 6.25 (≈ 19.3 µM) | 3.13 (≈ 9.69 µM) | 12.5 (≈ 38.7 µM) | Rod
N=C(N)SCc1ccccc1Cl [Compound 2-Cl] | 12.5 (≈ 62.3 µM) | > 100 | 25 (≈ 125 µM) | > 100 | > 100 | Sphere
Cc1ccc(CSC(=N)N)cc1 [Compound 4-CH3, S-(4-methyl-benzyl)-isothiourea] | 25 (≈ 139 µM) | > 100 | 50 (≈ 277 µM) | > 100 | > 100 | Sphere
N=C(N)SCc1c(Cl)cc(Cl)cc1Cl [2,4,6-Cl] | 100 (≈ 371 µM) | > 100 | > 100 | 100 (≈ 371 µM) | > 100 | Sphere
N=C(N)SCc1cc(Cl)ccc1Cl [2,5-Cl] | 12.5 (≈ 53.2 µM) | > 100 | 25 (≈ 106 µM) | > 100 | > 100 | Sphere
CC1(C)S[C@@H]2[C@H](NC(=O)C(N)c3ccccc3)C(=O)N2[C@H]1C(=O)O (stereo partly shown) [ABPC, reference compound] | 3.13 (≈ 8.96 µM) | > 100 | 1.56 (≈ 4.46 µM) | 0.0488 (≈ 0.14 µM) | 0.195 (≈ 0.558 µM) | Fil
N=C(N)SCc1ccc(F)cc1 [Compound 4-F, S-(4-Fluoro-benzyl)-isothiourea] | 12.5 (≈ 67.8 µM) | > 100 | 12.5 (≈ 67.8 µM) | 50 (≈ 271 µM) | 100 (≈ 543 µM) | Sphere
N=C(N)SCc1ccc(C(F)(F)F)cc1 [Compound 4-CF3, S-(4-Trifluoromethyl-benzyl)-isothiourea] | 50 (≈ 213 µM) | > 100 | > 100 | > 100 | > 100 | Sphere
N=C(N)SCc1cc(F)c(Cl)cc1Cl [2,4-Cl 5-F, S-(2,4-Dichloro, and 5-fluoro-benzyl)-isothiourea] | 0.78 (≈ 3.08 µM) | > 100 | 12.5 (≈ 49.4 µM) | 12.5 (≈ 49.4 µM) | > 100 | Sphere
